This passage reports MIC and IC50 results from patent US20250084041A1, “ANTIMICROBIAL COMPOUNDS AND METHODS” (Curza Global, LLC, priority 2021, published 2025).

For assay [1], the system named is A. baumannii (Ab). Put plainly: Broth microdilution MIC, A. baumannii. Type of assay: cell-based. The settings on record: Acinetobacter baumannii, read-out: Ab + bicarb 25 (MIC). As to the method:
(§1) A certified BSL-2 laboratory was used for testing. Compounds were evaluated using the broth microdilution minimum inhibitory concentration (MIC) and minimum bactericidal concentration (MBC) assays defined by Clinical and Laboratory Standards Institute (CLSI) in the M26-A guideline against S. aureus (Sa), E. coli (Ec), K. pneumoniae (Kp), A. baumannii (Ab), E. faecalis (Ef) and P. aeruginosa (Pa).
(§2) MICs were determined using the Clinical Laboratory and Standards Institute (CLSI) Broth Microdilution Method with slight modification. Clinical and Laboratory Standards Institute (2012). “Methods for dilution antimicrobial susceptibility tests for bacteria that grow aerobically; approved standard, 9th ed. M07-A9. Clinical and Laboratory Standards Institute, Wayne, PA.” Serial two-fold dilutions of compounds are prepared in sterile clear round-bottom 96-well plates.
(§3) To prepare microdilution trays, two-fold dilutions of antimicrobial agent are prepared in growth medium: Cation-Adjusted Mueller-Hinton Broth (CAMHB), or CAMHB supplemented with sodium bicarbonate (25 mM final concentration prepared from a 1.0 M stock solution) or CAMHB supplemented with heat inactivated human serum (Fisher Cat. #BP2657100) 0-50% by adding 200 μL of the highest concentration to be tested (64 μg/mL, for example) in row A, mixing and transferring 100 μL from row A to 100 μL growth medium in row B, then repeating the mixing and transferring through row H of the 96-well plate, discarding the excess 100 μL remaining. This slight modification to the CLSI protocol enables evaluation of MICs for 3 compounds per plate in triplicate, albeit with only 8 compound dilutions (CLSI protocol enables 2 compounds in triplicate with 10 dilutions). Bacterial suspensions are added to a final concentration of 5×10^4 CFU/well by adding 5 μL of a 1:10 dilution of a 0.5 McFarland suspension (1×10^8 CFU/mL) for each bacterium evaluated. Bacterial suspensions were prepared using the growth method described by CLSI. Well-isolated colonies (3-5 from an agar plate) were selected using a sterile loop and used to inoculate a tube containing 4 mL of CAMHB. The cultures are incubated at 35±2° C. until it achieves or exceeds the turbidity of the 0.5 McFarland standard, determined by measuring A600nm (usually two to six hours). When growth exceeds a 0.5 McFarland standard, the turbidity is adjusted with broth to be equivalent to a 0.5 McFarland standard.
In general terms: Dilution methods test growth across graded concentrations, often in twofold steps.

Assay [2] relates to S. aureus (Sa). Put plainly: Broth microdilution MIC, S. aureus. The class given is cell-based. The settings on record: Staphylococcus aureus, read-out: Sa + bicarb 25 (MIC). As for the experimental part: as §1, §2, §3
The test system of assay [3] is E. coli (Ec). Description: Broth microdilution MIC, E. coli. Type of assay: cell-based. The note with it: Escherichia coli, read-out: E. coli + bicarb 25 (MIC). As to the method: as §1, §2, §3
Assay [4] deals with P. aeruginosa (Pa). Description: Broth microdilution MIC, P. aeruginosa. The note with it: Pseudomonas aeruginosa, read-out: Pa + bicarb 25 (MIC). Type of assay: cell-based. As for the experimental part: as §1, §2, §3
Assay [5] has as its system E. coli S30 extract. Put plainly: E. coli S30 extract: inhibition of bacterial protein synthesis (luciferase). Type of assay: biochemical. The settings on record: 37° C. 1 hour. As for the experimental part:
E. coli S30 extract: Inhibition of bacterial protein synthesis was determined using the E. coli S30 Extract System for Circular DNA (Promega catalog #L-2010) and Luciferase Assay Reagent (Promega catalog #E1500) with slight modifications to a published protocol. Fyfe, C., Sutcliffe, J. A. and Grossman, T. H. (2012) “Development and characterization of a Pseudomonas aeruginosa in vitro coupled transcription-translation assay system for evaluation of translation inhibitors” J. Microbiol. Methods 90(3), 256-261.
Compounds were serial diluted in 0.5 mL microcentrifuge tubes by mixing and transferring 50 μL from the highest concentration to 50 μL of water, mixing and transferring 50 μL of this 2-fold dilution to 50 μL of water. This mixing and transferring was repeated so that there are a total of 8 tubes with serial dilutions of compound at 10× the desired screening concentration that are ultimately diluted to 1× by the addition of S30 luciferase synthesis mixture. Serial dilutions of compounds were added (2 μL) to wells in a black round bottom 96-well plate. Water (2 μL) was used as a “no inhibitor” control in 4 wells/plate. No DNA control reaction mixture (20 μL; see below) was used as a control in 4 wells/plate for background luminescence. S30 luciferase synthesis mixture (18 μL; see below) was added to wells with compounds or water mixture and incubated at 37° C. for 1 hour. Reactions were stopped by transferring to 4° C. refrigerator for 5 minutes then 25 μL of luciferase activity mix was added. Luminescence was measured using a BioTek Synergy HTX plate reader. % Inhibition was determined relative to no inhibitor controls.
• 445 μL S30 extract, circular • 712 μL S30 Premix without amino acids • 4.45 μL pBESTluc™ DNA (1 μg/μL) • 78 μL complete amino acid mixture • 267 μL water
• 20 μL S30 extract, circular • 32 μL S30 Premix without amino acids • 7 μL complete amino acid mixture • 21 μL water

Assay [6] relates to E. faecalis (Ef). Put plainly: Broth microdilution MIC, E. faecalis. The note with it: Enterococcus faecalis, read-out: Ef + bicarb 25 (MIC). Type of assay: cell-based. As to the method: as §1, §2, §3
The target in assay [7] is Rabbit Reticulocyte Lysate. Description: Rabbit Reticulocyte Lysate: inhibition of eukaryotic protein synthesis (luciferase). The class given is biochemical. The note with it: 30° C. 90 minutes, read-out: Retic. IC50. As for the experimental part: Inhibition of eukaryotic protein synthesis was determined using the Rabbit Reticulocyte Lysate System, Nuclease-Treated from Promega (catalog #L-4960) with slight modifications to the manufacturer's protocol. Compounds were serial diluted in 0.5 mL microcentrifuge tubes by mixing and transferring 50 μL from the highest concentration to 50 μL of water, mixing and transferring 50 μL of this 2-fold dilution to 50 μL of water. This mixing and transferring was repeated so that there are a total of 8 tubes with serial dilutions of compound at 10× the desired screening concentration that are ultimately diluted to 1× by the addition of rabbit reticulocyte luciferase synthesis mixture. Serial dilutions of compounds were added ([…]) to wells in a black round bottom 96-well plate. Water (2.5 μL) was used as a “no inhibitor” control in 4 wells/plate. No RNA control reaction mixture ([…]; see below) was used as a control in 4 wells/plate for background luminescence. Rabbit reticulocyte luciferase synthesis mixture (22.5 μL; see below) was added to wells with compounds or water mixture and incubated at 30° C. for 90 minutes. Luciferase assay reagent (25 μL) was added with luminescence measured using a BioTek Synergy HTX plate reader. % Inhibition was determined relative to no inhibitor controls.
• 1,000 μL rabbit reticulocyte lysate • 5.7 μL Luciferase Control RNA (1 μg/μL) • 26 μL complete amino acid mixture • 395 μL water
• 70 μL rabbit reticulocyte lysate • 2 μL complete amino acid mixture • 28 μL water

Structures can show the parent of a compound that is named as a salt. Where two headings read alike, the source gives them in different places.

On to `CC(C)(N)C(=O)N1CCN(C(=O)Nc2ccn(C3=CCC(CN4CCCC(N)CC4)CC3)c(=O)n2)CC1` (single isomer, unassigned) [Compound 41, 4-(2-Amino-2-methylpropanoyl)-N-(1-(4-((4-aminoazepan-1-yl)methyl)cyclohex-1-en-1-yl)-2-oxo-1,2-dihydropyrimidin-4-yl)piperazine-1-carboxamide hydrochloride salt], for which the MIC in assay [1] is greater than 32 µg/mL; in assay [2], less than 8 µg/mL; in assay [3] it was less than 8 µg/mL; in assay [4] it was greater than 32 µg/mL; in assay [6], less than 8 µg/mL. Besides, the half-inhibitory concentration (IC50) in assay [5] is less than 500 nM; in assay [7], no less than 1000 nM.

As for `CC(C)(N)C(=O)N1CCN(C(=O)Nc2ccn(C3=CCC(CN4CC[C@H](CN)C4)CC3)c(=O)n2)CC1` (stereo in doubt) [Compound 23, (S)-4-(2-Amino-2-methylpropanoyl)-N-(1-(4-((3-(aminomethyl)pyrrolidin-1-yl)methyl)cyclohex-1-en-1-yl)-2-oxo-1,2-dihydropyrimidin-4-yl)piperazine-1-carboxamide hydrochloride salt], the MIC is greater than 32 µg/mL in assay [1]; less than 8 µg/mL in assay [2]; less than 8 µg/mL in assay [3]; greater than 32 µg/mL in assay [4]; 8 to 32 µg/mL in assay [6]. Further, the IC50 in assay [5] is less than 500 nM; in assay [7], no less than 1000 nM.

`CC(C)(N)C(=O)N1CCN(C(=O)Nc2ccn(C3=CCC(CN4CC[C@@H](CN)C4)CC3)c(=O)n2)CC1` (stereo in doubt) [Compound 24, (R)-4-(2-Amino-2-methylpropanoyl)-N-(1-(4-((3-(aminomethyl)pyrrolidin-1-yl)methyl)cyclohex-1-en-1-yl)-2-oxo-1,2-dihydropyrimidin-4-yl)piperazine-1-carboxamide hydrochloride salt]: the MIC in assay [1] was greater than 32 µg/mL; in assay [2] it was less than 8 µg/mL; in assay [3] it was less than 8 µg/mL; in assay [4] it was greater than 32 µg/mL; in assay [6], greater than 32 µg/mL. Moreover, the IC50 in assay [5] was less than 500 nM; in assay [7], no less than 1000 nM.

With `CC(C)(N)C(=O)N1CCN(C(=O)Nc2ccn(C3CCC(CN(CCF)C4CCC(N)CC4)CC3)c(=O)n2)CC1` (stereo in doubt) [Compound 48, trans-cis-4-(2-Amino-2-methylpropanoyl)-N-(1-(4-(((4-aminocyclohexyl)(2-fluoroethyl)amino)methyl)cyclohexyl)-2-oxo-1,2-dihydropyrimidin-4-yl)piperazine-1-carboxamide hydrochloride salt], the MIC was greater than 32 µg/mL in assay [1]; 8 to 32 µg/mL in assay [2]; 8 to 32 µg/mL in assay [3]; greater than 32 µg/mL in assay [4]; 8 to 32 µg/mL in assay [6]. The IC50 in assay [5] was less than 500 nM; in assay [7], no less than 1000 nM.

Turning to `CC(C)(N)C(=O)N1CCN(C(=O)Nc2ccn(C3=CCC(CN[C@H]4CC[C@H](N)CC4)CC3)c(=O)n2)CC1` (stereo partly drawn) [Compound 1, 4-(2-Amino-2-methylpropanoyl)-N-(1-(4-(((trans-4-aminocyclohexyl)amino)methyl)cyclohex-1-en-1-yl)-2-oxo-1,2-dihydropyrimidin-4-yl)piperazine-1-carboxamide hydrochloride salt], the minimum inhibitory concentration (MIC) in assay [1] was greater than 32 µg/mL; in assay [2], less than 8 µg/mL; in assay [3] it was less than 8 µg/mL; in assay [4] it was greater than 32 µg/mL; in assay [6] it was 8 to 32 µg/mL. For the same compound, the figures for the IC50 in assay [5] and in assay [7] were less than 500 nM and no less than 1000 nM, respectively.

Regarding `CC(C)(N)C(=O)N1CCN(C(=O)Nc2ccn(C3=CCC(CN4C[C@@H]5[C@@H](CN)[C@@H]5C4)CC3)c(=O)n2)CC1` (stereo partly drawn) [Compound 2, 4-(2-Amino-2-methylpropanoyl)-N-(1-(4-((exo-6-(aminomethyl)-3-azabicyclo[3.1.0]hexan-3-yl)methyl)cyclohex-1-en-1-yl)-2-oxo-1,2-dihydropyrimidin-4-yl)piperazine-1-carboxamide hydrochloride salt], the MIC was greater than 32 µg/mL in assay [1] (A. baumannii, CAMHB supplemented with sodium bicarbonate 25 mM); less than 8 µg/mL in assay [2] (S. aureus, CAMHB supplemented with sodium bicarbonate 25 mM); less than 8 µg/mL in assay [3] (E. coli, CAMHB supplemented with sodium bicarbonate 25 mM); greater than 32 µg/mL in assay [4] (P. aeruginosa, CAMHB supplemented with sodium bicarbonate 25 mM); less than 8 µg/mL in assay [6] (E. faecalis, CAMHB supplemented with sodium bicarbonate 25 mM). Moreover, the IC50 is less than 500 nM in assay [5] and no less than 1000 nM in assay [7].

As to `CC(C)(N)C(=O)N1CCN(C(=O)Nc2ccn(C3=CCC(CN[C@H]4CC[C@H](N)C4)CC3)c(=O)n2)CC1` (stereo partly drawn) [Compound 3, 4-(2-Amino-2-methylpropanoyl)-N-(1-(4-((((1S,3S)-3-aminocyclopentyl)amino)methyl)cyclohex-1-en-1-yl)-2-oxo-1,2-dihydropyrimidin-4-yl)piperazine-1-carboxamide hydrochloride salt], the minimal inhibitory concentration (MIC) in assay [1] was greater than 32 µg/mL; in assay [2], less than 8 µg/mL; in assay [3], less than 8 µg/mL; in assay [4], greater than 32 µg/mL; in assay [6], greater than 32 µg/mL. For the same compound, the IC50 in assay [5] was less than 500 nM; in assay [7] it was no less than 1000 nM.

As to `CC(C)(N)C(=O)N1CCN(C(=O)Nc2ccn(C3=CCC(CN4CCCC(N)CC4)CC3)c(=O)n2)CC1` (centres unmarked) [Compound 4, 4-(2-Amino-2-methylpropanoyl)-N-(1-(4-((4-aminoazepan-1-yl)methyl)cyclohex-1-en-1-yl)-2-oxo-1,2-dihydropyrimidin-4-yl)piperazine-1-carboxamide hydrochloride salt], the MIC is greater than 32 µg/mL in assay [1]; less than 8 µg/mL in assay [2]; less than 8 µg/mL in assay [3]; greater than 32 µg/mL in assay [4]; less than 8 µg/mL in assay [6]. Further, the IC50 in assay [5] is less than 500 nM; in assay [7], no less than 1000 nM.

The MIC is the smallest concentration in the dilution series that meets the test's criterion for growth inhibition. One may read the IC50 as the concentration at which inhibition is half-maximal.
